From patent US11518742B2 (priority 2020, dated 2022) come the findings set out here.

Data set [1] in a line: Competitive equilibration of Pattern A, B and C forms in solvents. The format is physicochemical. The conditions noted are these: suspension in 0.5 ml solvent agitated 24 hours; AB = Pattern A 15 mg + Pattern B 30 mg, AC = Pattern A 15 mg + Pattern C 30 mg; 1 IPA, 2 toluene, 3 iPrOAc, 4 MeCN, 5 MEK, 6 2-MeTHF. The procedure: Solvent, 0.5 ml, was charged to crystallisation tubes as detailed in the Table below. Suspensions were agitated at 100 rpm at […] for 24 hours. Suspensions were isolated via isolute cartridge and air dried for 5 minutes and characterised by XRPD and DSC.

The test system of data set [2] is Slugs (Arion lusitanicus). Kind of data set: SMI assay, historical data (30-min / 60-min contact periods). The format is in vivo. The conditions noted are these: for Total MP (% body weight): treatment time 60-min; for CP1 30-min, amount of mucus produced / CP2 30-min, amount of mucus produced: Table 4 (Code 00E04); for CP1 30-min, amount of mucus produced / CP2 30-min, amount of mucus produced / Day 1 CP1 60-min, amount of mucus produced / Day 2 CP2 60-min, amount of mucus produced / CP1 60-min, amount of mucus produced / Total MP: historical data; for Day 1 CP1 60-min, amount of mucus produced / Day 2 CP2 60-min, amount of mucus produced: Table 5; for Day 1 CP1 60-min, amount of mucus produced: 1% in CP1; for Day 2 CP2 60-min, amount of mucus produced: 3.5% in CP2; for Ranking of salts by SIB reactions: comparison of 60-min historical data with SIB protocol data; for CP1 60-min, amount of mucus produced: Table 6.

Data set [3] in a line: Controlled cooling crystallisation: solubility in minimal solvent at 50 °C. The format is physicochemical. The procedure: (detailed in the Table below). The solutions were clarified through a 0.45 μm Teflon syringe filter into pre-heated crystallisation tubes and cooled from 50° C. to −10° C. over 60 hours (1° C. Hr-1 cooling rate) and held at −10° C. for 50 hours (no agitation).
Solutions were clarified into crystallisation tubes at 50° C. and were cooled to −10° C. at a rate of 10° C.·hr-1, then equilibrated at −10° C. for 12 hours, then agitated at −10° C. at 400 rpm for 30 minutes which afforded a mobile suspension for all samples except Sample I which remained a solution. Further equilibration with agitation at −10° C. at 400 rpm for 3 hours afforded a thin suspension. All samples were isolated via isolute cartridge and air dried for 5 minutes before characterisation.

On to `COc1ccc2[nH]cc(CCN(C)C)c2c1.O=C(O)c1ccccc1` [AC1], for which, in data set [1], the “Summary of solid form characterisation, DSC endotherm” value (shortened to “Summary … DSC endotherm”) is “Endotherm at 124 °C” and the “Summary of solid form characterisation, XRPD” value (from here on “Summary … XRPD”) is “Pattern A”.
As to `O=C([O-])C(=O)[O-].[Na+].[Na+]` [Sodium oxalate], the “Total MP (% body weight)” value in data set [2] (Concentration 1%) amounted to 11.2 % body weight. Besides, in data set [2], the “CP1 30-min, amount of mucus produced” value stood at 4.5 ± 1.3; the “CP2 30-min, amount of mucus produced” value was 6.6 ± 1.0; the “Day 1 CP1 60-min, amount of mucus produced” value was determined as 11.2 ± 3.9; the “Day 2 CP2 60-min, amount of mucus produced” value was found to be 16.0 ± 4.0. In addition, in data set [2], the “Ranking of salts by SIB reactions” value is reported as “most irritating salt”.
In the case of `O=C([O-])c1ccccc1.[Na+]` [Sodium benzoate], the “Total MP (% body weight)” value in data set [2] (Concentration 1%) is listed as 2.6 % body weight; in data set [2] (Concentration 10%) it was 6.9 % body weight. The “CP1 60-min, amount of mucus produced” value in data set [2] (listed as Sodium benzoate (1%)) is given as 2.6 ± 0.3; in data set [2] (listed as Sodium benzoate (10%)), 6.9 ± 1.2. The “Ranking of salts by SIB reactions” value in data set [2] was “least irritating salt”.
As for `COc1ccc2[nH]cc(CCN(C)C)c2c1.O=C(O)c1ccccc1` [AB3], the “Summary … XRPD” value in data set [1] is recorded as “Pattern A”.
`COc1ccc2[nH]cc(CCN(C)C)c2c1.O=C(O)c1ccccc1` [5MeODMT benzoate lot 20/20/150FP2]: the “Solubility mg · ml^−1 at ° C.” value is given as 12.5 at 80 mg · ml^−1 in data set [3] (2-Chlorotoluene, at 80 °C (suspension at 12.5 mg·ml-1 at 50 °C), cryst. tube K); 25 at 50 mg · ml^−1 in data set [3] (4-Methyl-2-pentanone, at 50 °C, cryst. tube H, minimal solvent for clear solution); 12.5 at 80 mg · ml^−1 in data set [3] (Cumene, at 80 °C (suspension at 12.5 mg·ml-1 at 50 °C), cryst. tube I); 40 at 50 mg · ml^−1 in data set [3] (Ethyl formate, at 50 °C, cryst. tube E, minimal solvent for clear solution); 12.5 at 50 mg · ml^−1 in data set [3] (Iso-Butyl acetate, at 50 °C, cryst. tube D, minimal solvent for clear solution); 16.7 at 50 mg · ml^−1 in data set [3] (Iso-Propyl acetate, at 50 °C, cryst. tube C, minimal solvent for clear solution). For the same compound, the “Solubility mg · ml^−1 at ° C.” value in data set [3] (Methyl acetate, at 50 °C, cryst. tube A, minimal solvent for clear solution) was 33.3 at 50 mg · ml^−1; in data set [3] (Methyl benzoate, at 50 °C, cryst. tube F, minimal solvent for clear solution), 50 at 50 mg · ml^−1; in data set [3] (Methyl propionate, at 50 °C, cryst. tube G, minimal solvent for clear solution), 40 at 50 mg · ml^−1; in data set [3] (Toluene, at 80 °C (suspension at 12.5 mg·ml-1 at 50 °C), cryst. tube J) it was 12.5 at 80 mg · ml^−1; in data set [3] (n-Propyl acetate, at 50 °C, cryst. tube B, minimal solvent for clear solution), 20 at 50 mg · ml^−1; in data set [3] (α,α,α-Trifluorotoluene, at 80 °C (suspension at 12.5 mg·ml-1 at 50 °C), cryst. tube L), 12.5 at 80 mg · ml^−1.
Take `COc1ccc2[nH]cc(CCN(C)C)c2c1.O=C(O)c1ccccc1` [AB6]: in data set [1], the “Summary … DSC endotherm” value was “Endotherm at 124 °C” and the “Summary … XRPD” value is reported as “Pattern A”.
The like results for `COc1ccc2[nH]cc(CCN(C)C)c2c1.O=C(O)c1ccccc1` [AB2] were, in that order, “Endotherm at 122 °C” and “Pattern C”.
Consider `COc1ccc2[nH]cc(CCN(C)C)c2c1.O=C(O)c1ccccc1` [AB1], for which, in data set [1], the “Summary … DSC endotherm” value is “Endotherm at 124 °C” and the “Summary … XRPD” value is “Pattern A”.
The like results for `COc1ccc2[nH]cc(CCN(C)C)c2c1.O=C(O)c1ccccc1` [AB4] were, in that order, “Endotherm at 124 °C” and “Pattern A”.
On to Benzalkonium chloride [PC - 1% BAC], for which, in data set [2], the “CP1 30-min, amount of mucus produced” value is 13.2 ± 4.2; the “CP2 30-min, amount of mucus produced” value came to 18.6 ± 9.8; the “Day 1 CP1 60-min, amount of mucus produced” value was determined as 21.9 ± 4.8; the “Day 2 CP2 60-min, amount of mucus produced” value stood at 9.7 ± 3.2. Further, the “CP1 60-min, amount of mucus produced” value in data set [2] is 15.0 ± 1.9. Further, in data set [2] (Table 4, 2 x 30-min contact periods), the “Total MP” value was 31.8 ± 12.6. The “Total MP” value in data set [2] (Table 5, 2 x 60-min contact periods) was determined as 31.6 ± 2.5.
On to `COc1ccc2[nH]cc(CCN(C)C)c2c1.O=C(O)c1ccccc1` [AC4], for which, in data set [1], the “Summary … DSC endotherm” value was “Endotherm at 124 °C” and the “Summary … XRPD” value was “Pattern A”.
The like results for `COc1ccc2[nH]cc(CCN(C)C)c2c1.O=C(O)c1ccccc1` [AC2] were, in that order, “Endotherm at 123 °C +” and “Pattern C”.
For `COc1ccc2[nH]cc(CCN(C)C)c2c1.O=C(O)c1ccccc1` [AB5], in that order: “Endotherm at 124 °C” and “Pattern A”.
